In US20250195553A1, “Use of Genipin-1-B-D-Gentiobioside in Preparation of Drug” (Guizhou Bailing Group Pharmaceutical Co., Ltd., priority 2023, published 2025):
Marks after values point to notes of the source that are not given here.

Tests used:
[1] = tested on: Mycoplasma Pneumoniae (MP); test: Inflammatory factors in lung tissue of MP-infected mice (ELISA); format: in vivo, BALB/C mice; conditions: 4 days
Procedure: […] Each group consisted of 10 mice, with an equal number of males and females. Except for the normal control group, all mice were lightly anesthetized with isoflurane and infected intranasally with Mycoplasma Pneumoniae (50 μl per mouse) for three consecutive days. On the day of infection, each treatment group received nebulized medication once daily for four consecutive days, while the normal control group and model control group received nebulized saline under the same conditions. On the fifth day, the mice were weighed, sacrificed by cervical dislocation, and their lung tissues were dissected, weighed, and used to calculate the lung index and lung index inhibition rate; measure the levels of inflammatory factors in the lung tissue; measure the serum CRP levels; and conduct pathological examinations of the lung tissue. The results were statistically analyzed using the t-test for intergroup comparisons.
(1) Sample Collection and Storage: Tissue Homogenate Samples: After weighing, lung tissues were collected from 8 mice in each group and stored at −80° C. The MP Fastprep-24 5G Rapid Sample Preparation System was used to homogenize the tissues, followed by centrifugation at […] and 3000 r/min for 10 minutes using a low-temperature high-speed centrifuge. The supernatant was then aspirated, aliquoted, and stored at −80° C. for future use, avoiding repeated freeze-thaw cycles.
(2) The microplate, which had been equilibrated to room temperature, was removed from the sealed bag. Different concentrations of standards were added to the corresponding wells, with 50 μL per well. For experimental samples, 10 μL of sample was added to each well, followed by 40 μL of diluent. Except for the blank wells, 100 μL of HRP (Horseradish Peroxidase) was added to each well. The reaction wells were sealed with sealing tape and incubated at 37° C. for 1 hour. The plate was then washed with wash buffer four times. After the final wash, the plate was inverted and all residual liquid was patted dry on absorbent paper. 50 μL of both Substrate A and Substrate B were added to each well. The reaction wells were then sealed with sealing tape and incubated at 37° C. for 15 minutes. After that, 50 μL of stop solution was added to each well, and the absorbance at 450 nm was measured using a microplate reader within 15 minutes. The results were then calculated.

SARS-CoV-2 = test: Virus titer in lung tissue homogenates of SARS-CoV-2 infected mice (TCID50 on VERO E6 cells); format: in vivo, hACE2 transgenic C57BL/6 mice
Procedure: 2.1 Grouping and Drug Administration: hACE2 transgenic C57BL/6 mice were divided into four groups, namely the blank control group, the SARS-CoV-2 infection group, the Genipin-1-β-D-gentiobioside (37.5 mg/kg) treatment group, and the Genipin-1-β-D-gentiobioside (75 mg/kg) treatment group, with 8 mice in each group. Except for the normal group, which received intranasal administration of Phosphate Buffered Saline (PBS), the other groups were infected with 10^4 Plaque Forming Unit (PFU) of Severe Acute Respiratory Syndrome Coronavirus 2 (SARS-CoV-2) virus via intranasal instillation. Two hours' post-infection, the treatment groups received intraperitoneal injections of the drug once daily for 5 consecutive days. Mouse deaths were recorded daily after infection, and the 5-day mortality rate was calculated. At the end of the experiment, the lung tissues were collected and homogenized for virus titer detection. […]
The well-grown VERO E6 cells were inoculated into a 96-well plate at a density of 1×10^4 cells per well and cultured for another 24 hours. […] The number of wells showing CPE at each concentration gradient was recorded, and the Tissue Culture Infectious Dose 50% (TCID50) value for VERO E6 cells was calculated.

[2] = tested on: Mycoplasma Pneumoniae (MP); test: Pathological changes in lung tissue of MP-infected mice (HE staining); format: in vivo, BALB/C mice; parameters: Alveolitis Lesion Degree / Bronchial Damage / Histological Damage Degree: scale not given here
Procedure: Fifty BALB/C mice, weighing 14±1 g, were randomly divided into five groups: a normal control group, a model control group, an azithromycin control group, a high-dose Genipin-1-β-D-gentiobioside group (75 mg/ml) with 15-minute nebulization, and a low-dose Genipin-1-β-D-gentiobioside group (37.5 mg/ml) with 15-minute nebulization. Each group consisted of 10 mice, with an equal number of males and females. Except for the normal control group, all mice were lightly anesthetized with isoflurane and infected intranasally with Mycoplasma Pneumoniae (50 μl per mouse) for three consecutive days. On the day of infection, each treatment group received nebulized medication once daily for four consecutive days, while the normal control group and model control group received nebulized saline under the same conditions. On the fifth day, the mice were weighed, sacrificed by cervical dislocation, and their lung tissues were dissected, weighed, and used to calculate the lung index and lung index inhibition rate; measure the levels of inflammatory factors in the lung tissue; measure the serum CRP levels; and conduct pathological examinations of the lung tissue. The results were statistically analyzed using the t-test for intergroup comparisons.
2.4 Pathological Changes in Mouse Lung Tissue (HE Staining Method)

[3] = High-Dose Group (75 mg/ml nebulization 15 min)
[4] = Low-Dose Group (37.5 mg/ml nebulization 15 min)

SMILES: COC(=O)C1=CO[C@@H](O[C@@H]2O[C@H](CO[C@@H]3O[C@H](CO)[C@@H](O)[C@H](O)[C@H]3O)[C@@H](O)[C@H](O)[C@H]2O)[C@@H]2C(CO)=CC[C@H]12 [Genipin-1-β-D-gentiobioside]
- Inflammatory Factor Levels in Lung Tissue IL-1β ([1]; 37.5 mg/ml inhalation): 147.59 ± 41.87 pg/mL
- Inflammatory Factor Levels in Lung Tissue IL-6 ([1]; 37.5 mg/ml inhalation): 150.92 ± 7.65 pg/mL
- Inflammatory Factor Levels in Lung Tissue TNF-α ([1]; 37.5 mg/ml inhalation): 248.53 ± 93.97 pg/mL
- Inflammatory Factor Levels in Lung Tissue IL-1β ([1]; 75 mg/ml inhalation): 148.31 ± 10.97 pg/mL
- Inflammatory Factor Levels in Lung Tissue IL-6 ([1]; 75 mg/ml inhalation): 163.92 ± 8.54 pg/mL
- Inflammatory Factor Levels in Lung Tissue TNF-α ([1]; 75 mg/ml inhalation): 312.79 ± 81.52 pg/mL
- Virus titer in the lung tissue vs model control group (SARS-CoV-2; 37.5 mg/kg, P<0.05): significantly reduced the virus titer
- Virus titer in the lung tissue vs model control group (SARS-CoV-2; 75 mg/kg, P<0.01): significantly reduced the virus titer
- Alveolitis Lesion Degree [2, 3]: 30.40*
- Bronchial Damage [2, 3]: 26.60*
- Histological Damage Degree [2, 3]: 1.50 ± 0.55
- Interstitial Inflammatory Cell Infiltration [2, 3]: 30.60*
- Pathological changes of lung tissue compared with the model group ([2]; High-Dose Group, HE staining): significantly reduced
- Alveolitis Lesion Degree [2, 4]: 39.35
- Bronchial Damage [2, 4]: 52.35
- Histological Damage Degree [2, 4]: 1.90 ± 0.39
- Pathological changes (alveolar wall thickening, inflammatory cell infiltration) compared with the model group ([2]; Low-Dose Group, HE staining): significantly reduced
